Laboratory results from PMC4634704 (Bioorganic & medicinal chemistry letters, 2015).
Like-named read-outs stand apart in the source and are kept apart here.

Legend:
[1] = Hepatic microsomal intrinsic clearance, human; conditions: predicted hepatic clearance
[2] = tested on: 68 distinct GPCRs, ion channels and transporters; assay: Broad panel ancillary screen; assay type: binding; conditions: 68 targets, Eurofins Inc.
[3] = Terminal brain and plasma levels from AHL studies
mGlu5 [4] = target: mGlu5 (Rattus norvegicus, UniProt P31424); assay: Allosteric agonism in rat astrocytes; assay type: cell-based; conditions: mGlu5 endogenously expressed
Chain of mGlu5 (Rattus norvegicus, UniProt P31424) (P31424 21-1203): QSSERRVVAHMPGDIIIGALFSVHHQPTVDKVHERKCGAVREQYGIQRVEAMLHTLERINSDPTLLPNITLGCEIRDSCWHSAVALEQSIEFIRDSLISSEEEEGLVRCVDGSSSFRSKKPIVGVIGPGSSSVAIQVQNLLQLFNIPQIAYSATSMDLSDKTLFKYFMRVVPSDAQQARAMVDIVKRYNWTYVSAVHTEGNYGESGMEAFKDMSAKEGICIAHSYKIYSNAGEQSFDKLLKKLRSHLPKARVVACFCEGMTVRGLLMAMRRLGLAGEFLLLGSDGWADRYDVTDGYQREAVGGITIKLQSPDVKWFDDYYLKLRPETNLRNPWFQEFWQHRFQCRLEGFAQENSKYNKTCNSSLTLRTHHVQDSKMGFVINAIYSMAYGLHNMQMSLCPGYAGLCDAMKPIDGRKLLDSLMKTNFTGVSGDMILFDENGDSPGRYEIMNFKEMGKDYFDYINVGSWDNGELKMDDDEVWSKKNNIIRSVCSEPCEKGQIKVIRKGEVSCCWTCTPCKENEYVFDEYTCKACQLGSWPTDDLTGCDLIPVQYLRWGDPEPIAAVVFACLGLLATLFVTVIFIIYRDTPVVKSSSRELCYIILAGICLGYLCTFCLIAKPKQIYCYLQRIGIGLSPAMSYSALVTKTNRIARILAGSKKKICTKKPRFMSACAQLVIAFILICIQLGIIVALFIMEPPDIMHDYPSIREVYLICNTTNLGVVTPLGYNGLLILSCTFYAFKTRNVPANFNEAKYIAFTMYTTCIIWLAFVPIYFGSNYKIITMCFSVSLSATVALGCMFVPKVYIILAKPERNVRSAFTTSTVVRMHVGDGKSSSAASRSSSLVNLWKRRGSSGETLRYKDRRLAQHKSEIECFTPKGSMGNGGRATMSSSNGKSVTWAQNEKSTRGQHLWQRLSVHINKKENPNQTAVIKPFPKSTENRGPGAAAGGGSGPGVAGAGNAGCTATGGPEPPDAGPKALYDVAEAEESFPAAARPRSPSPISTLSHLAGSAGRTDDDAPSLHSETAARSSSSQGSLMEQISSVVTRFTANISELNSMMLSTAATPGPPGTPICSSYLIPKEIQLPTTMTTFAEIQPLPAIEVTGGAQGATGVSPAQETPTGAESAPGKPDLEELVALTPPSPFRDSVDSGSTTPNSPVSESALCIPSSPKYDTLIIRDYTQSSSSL

Rat plasma stability = conditions: 4 h incubation; 37 °C
mGlu1-4,6-8 = assay: mGlu family selectivity; assay type: cell-based; conditions: selectivity versus other mGlu family members
[5] = Stability in vehicle formulation; assay type: physicochemical; conditions: 20% β-CD pH 6, 4 mg/mL, up to five days
[6] = Hepatic microsomal intrinsic clearance, rat; conditions: predicted hepatic clearance
[7] = Simulated gastric fluid solubility and stability; conditions: 1 h, 37 °C
major CYP450 enzymes = assay: CYP450 inhibition
mGlu5 [8] = target: mGlu5 (Homo sapiens, UniProt P41594); assay: Allosteric agonism in cell lines over expressing mGlu5; assay type: cell-based
Chain of mGlu5 (Homo sapiens, UniProt P41594) (P41594 21-1212): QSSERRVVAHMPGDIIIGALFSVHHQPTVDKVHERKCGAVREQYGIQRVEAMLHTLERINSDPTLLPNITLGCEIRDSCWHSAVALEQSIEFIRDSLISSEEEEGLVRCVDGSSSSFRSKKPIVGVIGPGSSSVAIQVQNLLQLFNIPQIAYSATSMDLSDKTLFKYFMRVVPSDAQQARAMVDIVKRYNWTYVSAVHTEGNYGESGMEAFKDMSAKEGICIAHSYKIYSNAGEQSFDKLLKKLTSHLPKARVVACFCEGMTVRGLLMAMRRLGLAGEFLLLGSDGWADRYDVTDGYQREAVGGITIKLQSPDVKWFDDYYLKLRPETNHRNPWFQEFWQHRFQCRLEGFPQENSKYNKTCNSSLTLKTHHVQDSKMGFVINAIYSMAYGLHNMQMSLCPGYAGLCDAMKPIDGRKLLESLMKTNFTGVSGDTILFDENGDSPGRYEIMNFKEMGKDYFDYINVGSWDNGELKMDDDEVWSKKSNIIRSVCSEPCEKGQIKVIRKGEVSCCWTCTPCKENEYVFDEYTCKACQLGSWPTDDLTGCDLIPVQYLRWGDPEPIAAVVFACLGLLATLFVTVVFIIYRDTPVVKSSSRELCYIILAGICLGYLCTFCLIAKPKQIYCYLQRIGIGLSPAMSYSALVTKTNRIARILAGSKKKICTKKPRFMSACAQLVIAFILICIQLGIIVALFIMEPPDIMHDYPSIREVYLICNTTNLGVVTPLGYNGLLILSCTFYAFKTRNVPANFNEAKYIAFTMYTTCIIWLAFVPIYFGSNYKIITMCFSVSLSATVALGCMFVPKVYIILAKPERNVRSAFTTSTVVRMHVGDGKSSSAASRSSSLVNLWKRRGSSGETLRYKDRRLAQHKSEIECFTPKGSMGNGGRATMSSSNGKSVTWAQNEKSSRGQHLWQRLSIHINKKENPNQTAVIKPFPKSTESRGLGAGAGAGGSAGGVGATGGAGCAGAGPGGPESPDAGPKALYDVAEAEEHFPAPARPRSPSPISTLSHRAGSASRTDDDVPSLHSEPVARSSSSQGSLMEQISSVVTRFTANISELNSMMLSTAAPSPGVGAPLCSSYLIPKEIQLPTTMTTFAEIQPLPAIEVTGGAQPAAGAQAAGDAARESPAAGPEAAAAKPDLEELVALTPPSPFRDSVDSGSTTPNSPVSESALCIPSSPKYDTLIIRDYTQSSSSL

[9] = Rat modified Irwin study / acute CNS behavioural observation
Rat IV cassette PK = conditions: male, Sprague-Dawley, in vivo, 0.2 mg/kg
[10] = rat, cited from earlier work
[11] = 30 days, 360 mg/kg/day, IND-enabling

In the case of CC(=O)N1CCCn2nc(COc3ccccc3)cc21 [9a, 1-(2-(phenoxymethyl)-6,7-dihydropyrazolo[1,5-a]pyrimidin-4(5H)-yl)ethanone], the clearance (Discrete rat PK) is reported as “moderate to high”, the “CLhep (h)” value [1] is reported as greater than 12 mL/min/kg and the “activity in broad panel ancillary screen” value [2] is reported as “no noted activity”. For the same compound, the “terminal estimated unbound brain concentration” value ([3]; AHL 3 mg/kg PO, rat) was 199 nM, the allosteric agonism (mGlu5 [4]) was “no allosteric agonism was detected” and the rat plasma stability (Rat plasma stability) was “stable”. For the same compound, the “FS at mGlu1-4,6-8” value (mGlu1-4,6-8) was less than 1.2, the “decomposition in vehicle formulation” value [5] was less than 5% and the bioavailability (Discrete dog PK) was “low bioavailability”. The clearance (Discrete dog PK) was “moderate to high”, the exposure (Discrete dog PK; IV and oral) was “poor exposure” and the “CLhep (r)” value [6] was greater than 35 mL/min/kg. For the same compound, the “decomposition in simulated gastric fluid” value [7] was less than 5%, the IC50 (major CYP450 enzymes) was greater than 30 µM and the allosteric agonism (mGlu5 [8]) was “no allosteric agonism was detected”. For the same compound, the brain concentration ([9]; 56.6 mg/kg, rat) was 113 µM, the safety window ([9]; modified Irwin concentrations versus AHL MED) was no less than 100 fold and the “behaviour across 30 autonomic and somatomotor endpoints” value ([9]; modified Irwin, 30 mg/kg PO, rat) was “no observable alterations in behavior”. It also gave a concentration at 1 h ([9]; rat, in vivo, 30 mg/kg, est. Cb,u, 30 mg/kg PO, 1.0 h post-dose) of 36 µM and a clearance (Rat IV cassette PK) greater than 70 mL/min/kg.
For O=C(c1ccc(F)cc1)N1CCc2nc(COc3ccccc3)oc2C1 [compound 1], the neurotoxicity ([10]; 14 day oral dose-limiting study, 450 mg/kg/day) is listed as “no neurotoxicity was observed”, the exposure ([10]; 14 day, 450 mg/kg/day) is listed as 273-440 μM-h and the “Fluoro-Jade C staining” value [10, 11] is listed as “induced Fluoro-Jade C staining in a small number of rats”. For the same compound, the exposure [10, 11] was 253-416 μM-h.
With CC(=O)N1CCCn2nc(COc3ccccc3F)cc21 [12a] the terminal brain concentration ([3]; AHL 10 mg/kg PO, T90, rat) was “not detected”, the rat plasma stability (Rat plasma stability) was “stable” and the clearance (Rat IV cassette PK) was greater than 70 mL/min/kg.
For CC(=O)N1CCCn2nc(COc3cccc(F)c3)cc21 [12b], the “CLhep (h)” value [1] was greater than 12 mL/min/kg and the “CLhep (r)” value [6] was greater than 35 mL/min/kg.
